Laboratory results: PubChem BioAssay (NCI)
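Cells were grown in 96-well plates and exposed to each compound for 48 hours at five concentrations; endpoints were interpolated linearly between bracketing concentrations, or set to the highest concentration if not reached. GI50 = concentration required for 50% inhibition of growth. TGI denotes the concentration required for complete inhibition of growth.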

What was measured:
Assay in all cases: DTP human tumour cell line panel, 48 h
IGROV1 ovarian = tested on: IGROV1 ovarian
HT29 colon = tested on: HT29 colon
OVCAR-4 ovarian = tested on: OVCAR-4 ovarian
HCT-116 colon = tested on: HCT-116 colon
MALME-3M melanoma = tested on: MALME-3M melanoma
UACC-257 melanoma = tested on: UACC-257 melanoma
HL-60(TB) leukemia = tested on: HL-60(TB) leukemia
K-562 leukemia = tested on: K-562 leukemia
SF-539 CNS = tested on: SF-539 CNS
MOLT-4 leukemia = tested on: MOLT-4 leukemia
U251 CNS = tested on: U251 CNS
OVCAR-3 ovarian = tested on: OVCAR-3 ovarian

| Compound | TGI (IGROV1 ovarian) [µM] | TGI (HT29 colon) [µM] | TGI (OVCAR-4 ovarian) [µM] | TGI (HCT-116 colon) [µM] | TGI (MALME-3M melanoma) [µM] | TGI (UACC-257 melanoma) [µM] | TGI (HL-60(TB) leukemia) [µM] | TGI (K-562 leukemia) [µM] | TGI (SF-539 CNS) [µM] | TGI (MOLT-4 leukemia) [µM] | TGI (U251 CNS) [µM] | TGI (OVCAR-3 ovarian) [µM] | GI50 (IGROV1 ovarian) [µM] | GI50 (UACC-257 melanoma) [µM] | GI50 (HL-60(TB) leukemia) [µM] | GI50 (MOLT-4 leukemia) [µM] | GI50 (HCT-116 colon) [µM] | GI50 (MALME-3M melanoma) [µM] | GI50 (SF-539 CNS) [µM] |
| --- | --- | --- | --- | --- | --- | --- | --- | --- | --- | --- | --- | --- | --- | --- | --- | --- | --- | --- | --- |
| CSc1nc2c(ncn2C2OC(CO)C(O)C(O)C2O)c(=O)n1C (stereo not given) | > 100 | > 100 | > 100 | > 100 | > 100 | > 100 | > 100 | > 100 | > 100 | > 100 | > 100 | > 100 |  |  |  |  |  |  |  |
| Nc1nc2cc(COc3ccc(C(=O)O)cc3)ccc2nc1-c1ccccc1 | > 10 | > 10 | > 10 |  |  | > 10 | > 10 | > 10 | > 10 | > 10 | > 10 | > 10 |  |  |  |  |  |  |  |
| C=CCn1c(C)nc2cc(Nc3nc(N4CCCC4)nc4nc[nH]c34)ccc21 | > 100 |  |  |  |  | > 100 | > 100 |  |  | > 100 |  |  | > 100 | > 100 | > 100 | > 100 |  |  |  |
| COc1cc(C2c3cc4c(cc3[C@@H](Nc3cnc5ccccc5c3)C3COC(=O)[C@H]23)OCO4)cc(OC)c1O (stereo not given in full) | 10.4 | 4.2 | 4.43 | 2.26 | 2.43 | 6.64 | 0.377 | 7.33 | 0.82 |  | 0.6 | 3.9 |  |  |  |  |  |  |  |
| O=C(N/N=C/c1cc(Cl)cc(Cl)c1[O-])c1ccccc1O.O=C(N/N=C/c1cc(Cl)cc(Cl)c1[O-])c1ccccc1O.[Mn+2] |  |  | 1.58 | 13.8 | 7.79 | 11.9 | 0.404 | 17.2 | 4.51 | 14.8 | 5.52 | 1.02 |  |  |  | 0.289 | 0.423 | 1.34 | 0.459 |
| C=C1C(=O)OC2/C=C(CO)/C=C\C3OC3(C)CC(OC(=O)/C(C)=C/COC(C)=O)C12 (stereo not given) | 23.9 | 7.39 | 16.4 | 2.83 | 3.38 | 6.59 | 1.48 | > 20.7 | 4.39 | 5.49 | 14.5 | 6.68 |  |  |  |  |  |  |  |
| O=C1Nc2ccccc2C1(O)Cc1ccccn1 (stereo not given) | > 100 | > 100 | > 100 | > 100 | > 100 | > 100 | > 100 | > 100 |  |  | > 100 | > 100 |  |  |  |  |  |  |  |
| C=C1C(=O)OC2/C=C(\CO)C3OC3C3OC3(C)CC(OC(=O)/C(=C/C)COC(C)=O)C12 (stereo not given) | 29.5 | 15.3 | 24.1 | 2.96 | 3.09 | 12.6 |  | > 100 | 7.38 | > 100 | 16.8 | 11.4 |  |  |  |  |  |  |  |
| O=c1c2cc([N+](=O)[O-])ccc2[nH]n1Cc1ccccc1Cl | > 100 | > 100 | > 100 | > 100 | > 100 | > 100 | > 100 | > 100 | > 100 | > 100 | > 100 | > 100 |  |  |  |  |  |  |  |
